Experimental data reported in patent US6784155B1, “Inhibitor and stimulator of stem cell proliferation and uses thereof” (Wellstat Therapeutics Corporation, priority 1996, dated 2004).
No end group written: not given here.

Experiments:
CFU-MIX [1] = assay: CFU-MIX cycling assay in vitro (Ara C kill); format: cell-based, mouse
Method: A similar assay can be performed in vitro, using the cycling status of CFU-MIX instead of CFU-S. The assay is performed as described above for the CFU-S assay except that cytosine arabinoside (Ara C, 30 micrograms/ml) is used as the cycle-specific toxic agent instead of high dose tritiated thymidine (see B. I. Lord in Haemopoiesis—A Practical Approach, N. G. Testa and G. Molineux (Eds.), IRL Press 1993; Pragnell et al. in Culture of Hematopoietic Cells, R. I. Freshney, I. B. Pragnell and M. G. Freshney (Eds.), Wiley Liss 1994) and a mouse strain with high endogenous cycling rates (Balb/c) is used instead of testosterone-treated BDFI mice.
24 hours later (Day 1), varying doses of peptide 43-55 or vehicle were injected i.v. Bone marrow was harvested on Day 2 and the […] cycling assay conducted as in Example 14. Specifically, mice were sacrificed and single cell bone marrow suspensions prepared from the femurs. The cells were washed once and the concentration adjusted to 5×10^6 cells/ml in Fischer medium. For each test condition, one milliliter of cells was added to each of two polypropylene tubes. The tubes were incubated at 37° C. for 3 hours without (“Control”) or with (“Experimental”) the appropriate concentration of test substance. At the end of the incubation, 30 μg/ml of cytosine arabinoside (“Ara C” (Sigma)) was added to half of the tubes and the same volume of Fischer's medium was added to the others. The tubes were incubated for a further 1 hour at 37° C., after which they were placed on ice and washed twice with cold Fischer medium.
The cells were readjusted to 5×10^4-10^6/ml in Fischer's medium and 0.5 ml of cell suspension added to 5 ml of Methocult M3430 methylcellulose medium (Stem Cell Technologies, Vancouver, British Columbia). The mixture was vigorously mixed with a vortex and 1 ml was dispensed into each of five 35 mm dishes. The 35 mm dishes were in turn placed in a covered 150 mm dish with one open 35 mm dish containing sterile water. CFU-MIX colonies were counted with the use of an inverted microscope after 7 days of incubation at 37° C.
Differences in colony number between the tubes treated with medium versus the tubes treated with Ara C represent the percentage of cells in cycle under that condition according to the formula:
a=Number of CFU-MIX from tube incubated with medium alone
b=Number of CFU-MIX from tube incubated with Ara C

[2] = Distribution of ubiquitin fusion proteins between soluble fraction and precipitate of E. coli lysate (SDS-PAGE); format: physicochemical; conditions: after centrifugation of the bacterial lysate
Method: To obtain protein for assay, 100 ml starter cultures in 250 ml shake flasks were grown from single colonies by overnight incubation (16-20 hours) in 2×YT medium with ampicillin (100 μg/ml), neomycin (10 μg/ml) and 1% glucose. Shaker flask cultures were maintained at 30° C. and 250 rpm in a New Brunswick environmental shaker incubator. The next morning the culture was diluted to liter with medium Cells were induced by IPTG addition to 1 mM (final dilution) at OD600=0.5 and harvested at OD600=0.8 by centrifugation. The harvested cells were resuspended in hypotonic lysis buffer (100 μl of 50 mM Tris, pH 10.0). The bacterial cells were lysed by subjecting the suspension to three cycles of freeze-thaw (dry ice-ethanol bath for freezing and 60° C. for thawing). The suspension was then sonicated for 10 min and centrifuged at 12,000 g for 10 min. The resulting supernatant was designated as “S1”. The cell pellet was resuspended in 50 mM Tris, pH10 and 2×SDS tricine loading buffer (Novex, San Diego, Calif.) (1:1). The mixture was then heated at 95° C. for 15 min and centrifuged at 12,000 g for 10 min. The portion of the precipitate capable of being resolubilized in this manner was called “P1”. The portion of the precipitate derived from the remaining pellet was called “P2”. P2 was resuspended in loading buffer as for P1. Samples from S1, P1 and P2 were analyzed by SDS-PAGE. […]

CFU-MIX [3] = assay: Stimulation of cycling of quiescent murine stem cells after i.v. administration; format: in vivo; conditions: Table 43, untreated B6D2F1 mice, 150 μg/mouse i.v., marrow 24 hours later
Method: Human alpha hemoglobin was injected i.v. into untreated B6D2F1 mice. 24 hours later, the mice were sacrificed, bone marrow collected from femurs and the CFU-MIX assay conducted as in Example 24.

CFU-MIX [4] = assay: Stimulation of cycling of quiescent murine stem cells, CFU-MIX cycling assay in vitro; format: cell-based, mouse; conditions: Table 44, 100 ng/ml, alone

Substance	% Kill (CFU-MIX [1]; Table 17, 1 ng/ml) [%]	% Kill (CFU-MIX [1]; Table 17, 10 ng/ml) [%]	% Kill (CFU-MIX [1]; Table 17, 100 ng/ml) [%]	% Kill (CFU-MIX [1]; Table 18, 100 ng/ml) [%]	% Kill (CFU-MIX [1]; Table 24, 1 ng/ml) [%]	% Kill (CFU-MIX [1]; Table 27, Balb/c bone marrow, 1 ng/ml) [%]	% Kill (CFU-MIX [1]; Table 28, 10 ng/ml, alone) [%]	% Kill (CFU-MIX [1]; Table 31, 10 ng/ml, alone) [%]	fraction of bacterial lysate containing the peptide [2]	% Kill (CFU-MIX [1]; Table 11, bone marrow from Balb/c mice, 100 ng/ml) [%]	% Kill (CFU-MIX [1]; Table 13, bone marrow from Balb/c mice, 100 ng/ml) [%]	% Kill (CFU-MIX [1]; Table 20, Balb/c bone marrow, 100 ng/ml) [%]	% Kill (CFU-MIX [1]; Table 25, Balb/c bone marrow, 100 ng/ml) [%]	% Kill (CFU-MIX [1]; Table 28, 100 ng/ml, alone) [%]	% Kill (CFU-MIX [1]; Table 30, 100 ng/ml) [%]	% Kill (CFU-MIX [1]; Table 31, 100 ng/ml, alone) [%]	% Kill (CFU-MIX [3]) [%]	% Kill (CFU-MIX [4]) [%]
FPHFDLSHGSAQV [Peptide 43-55, amino acids 43-55 of human alpha hemoglobin]	11	18	2	5	8	8	6	8	contained in the soluble fraction									
Human alpha chain: purified, non-recombinant human alpha hemoglobin chain isolated by reversed-phase HPLC										−1	19	12	0	0	0	0	48	48
